Here are results for 14 compounds from PubChem BioAssay (NCI).

Among the test systems are MDA-MB-231 breast; M14 melanoma; LOX IMVI melanoma; ACHN renal; DLD-1 colon; SNB-78 CNS; M19-MEL melanoma; XF 498 CNS; HOP-18 NSCLC; PC-3 prostate; 786-0 renal; CAKI-1 renal; NCI/ADR-RES ovarian.
What all share (assay): NCI-60 cell line screen, 48 h

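Tested at 5 concentrations; 48 h exposure; 96-well plates; endpoints linearly interpolated, else capped at highest concentration. At the GI50, growth is halved. TGI denotes the concentration required for complete inhibition of growth.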

On to `COC(=O)C1=C(O)C(C(=O)OC)[C@@]2(O)[C@@H](C(=O)OC)CC[C@@H]1[C@@H]2C(=O)OC` (some centres not stated), for which the TGI in the experiment with MDA-MB-231 breast is 83.5 µM; in the experiment on M14 melanoma, 62.6 µM; in the experiment on LOX IMVI melanoma, 76.8 µM; in the experiment with ACHN renal, more than 100 µM.

`COc1cc(Cc2ccc3c(c2C#N)N(C)c2ccccc2S3)cc(OC)c1OC`: the TGI in the experiment with DLD-1 colon, in the experiment on M14 melanoma, in the experiment on LOX IMVI melanoma, in the experiment with SNB-78 CNS, with M19-MEL melanoma and with XF 498 CNS was more than 100 µM each time. The TGI in the experiment on HOP-18 NSCLC and in the experiment on ACHN renal was more than 100 µM each time.

`C/C(=N\NC(=S)Nc1ccc(Cl)cc1)c1nc2ncccc2[nH]1`: the TGI with PC-3 prostate was 17.4 µM; in the experiment on 786-0 renal it was 29.7 µM; in the experiment with MDA-MB-231 breast, more than 100 µM; in the experiment on M14 melanoma it was 6.54 µM; in the experiment with LOX IMVI melanoma it was 13.1 µM; with CAKI-1 renal, 33.2 µM. The TGI in the experiment with NCI/ADR-RES ovarian came to 53.4 µM; with ACHN renal, 15.8 µM.

On to `CN(CCO)/N=N/c1nc[nH]c1C(N)=O`, for which the TGI with DLD-1 colon, in the experiment with M14 melanoma, in the experiment with LOX IMVI melanoma, in the experiment on SNB-78 CNS, in the experiment with M19-MEL melanoma and with XF 498 CNS was more than 100 µM in each case. Moreover, the TGI in the experiment on ACHN renal was more than 100 µM.

For `CCOC(=O)Oc1ccc2c(c1)c(=O)c1c(NCCCN(CC)CC)ccc3nnn2c31`, the TGI worked out at 20.9 µM in the experiment on PC-3 prostate; 15.7 µM with 786-0 renal; 21.8 µM with MDA-MB-231 breast; 25.4 µM in the experiment with M14 melanoma; 12 µM in the experiment with LOX IMVI melanoma; 9.75 µM in the experiment on CAKI-1 renal. Also, the TGI was found to be 28.1 µM in the experiment with NCI/ADR-RES ovarian and 15.8 µM with ACHN renal.

`Cc1nc(N(CCO)CCO)c2sc(=S)n(-c3ccccc3)c2n1`: the TGI with DLD-1 colon, in the experiment on HOP-18 NSCLC and in the experiment on ACHN renal was more than 100 µM each time.

Turning to `NC(=S)N/N=C/c1ccc(OC(=O)COc2ccccc2Cl)cn1`, the TGI was more than 100 µM in the experiment on DLD-1 colon; more than 100 µM in the experiment on LOX IMVI melanoma; more than 100 µM in the experiment with CAKI-1 renal; more than 100 µM in the experiment with SNB-78 CNS; 59.3 µM in the experiment with NCI/ADR-RES ovarian; more than 92.2 µM in the experiment with M19-MEL melanoma. The TGI was more than 92 µM with XF 498 CNS and more than 100 µM in the experiment with HOP-18 NSCLC.

Take `O=c1oc2c(ccc3c(O)cccc32)c2c1CCCC2`: the TGI in the experiment on PC-3 prostate is more than 100 µM; in the experiment with 786-0 renal, more than 100 µM; with MDA-MB-231 breast it was 47.1 µM; in the experiment on M14 melanoma, more than 100 µM; with LOX IMVI melanoma it was more than 100 µM; in the experiment on CAKI-1 renal it was more than 100 µM. Besides, the TGI with NCI/ADR-RES ovarian and in the experiment with ACHN renal was more than 100 µM throughout.

With `Cc1ccc(S(=O)(=O)Nc2cc(Sc3ccccc3)c(O)c3ccccc23)cc1`, the GI50 in the experiment on PC-3 prostate is 2.2 µM; in the experiment on MDA-MB-231 breast, 2.43 µM; in the experiment on M14 melanoma it was 6.49 µM; in the experiment with LOX IMVI melanoma it was 2.34 µM; in the experiment on CAKI-1 renal, 3.16 µM; in the experiment on NCI/ADR-RES ovarian, 3 µM. Besides, the GI50 with ACHN renal was 2.8 µM. Besides, the TGI was determined as 9.29 µM in the experiment with PC-3 prostate; 6.16 µM in the experiment with MDA-MB-231 breast; 19.9 µM in the experiment on M14 melanoma; 7.96 µM in the experiment with LOX IMVI melanoma; 9.19 µM in the experiment with CAKI-1 renal; 9.31 µM in the experiment with NCI/ADR-RES ovarian. The same compound had a TGI in the experiment on ACHN renal of 10.4 µM.

Regarding `C/C([O-])=C(/c1nc(-c2ccc([N+](=O)[O-])o2)no1)[n+]1cc(C)ccc1C`, the TGI in the experiment with DLD-1 colon is 24.7 µM; in the experiment on LOX IMVI melanoma it was 21.8 µM; in the experiment on CAKI-1 renal it was 28.7 µM; with SNB-78 CNS, more than 100 µM; in the experiment with NCI/ADR-RES ovarian it was more than 100 µM; in the experiment on M19-MEL melanoma, 17.6 µM. Further, the TGI with XF 498 CNS was 21.1 µM; in the experiment with HOP-18 NSCLC, 21.8 µM.

`BrC1=CN2C[n+]3cc(Br)c4ccccc4c3N=C2c2ccccc21`: the TGI with PC-3 prostate is 33.9 µM; in the experiment with MDA-MB-231 breast it was 34.6 µM; in the experiment on M14 melanoma it was 18.4 µM; in the experiment on LOX IMVI melanoma it was 34.2 µM; in the experiment with CAKI-1 renal, 48.1 µM; in the experiment on NCI/ADR-RES ovarian it was more than 100 µM. Also, the TGI with ACHN renal turned out to be 34.7 µM.

As to `CCOC(=O)/C(=N/Nc1ccc(Cl)cc1)N1C(=S)C=C(C)NN(C)C1=S`, the TGI with MDA-MB-231 breast, with M14 melanoma, with CAKI-1 renal, with NCI/ADR-RES ovarian and with ACHN renal was more than 100 µM in each case.

Consider `CCOC(=O)C(=O)Nc1cccc(C)c1C`, for which the TGI with DLD-1 colon, with M14 melanoma, in the experiment on CAKI-1 renal, with SNB-78 CNS, with M19-MEL melanoma and in the experiment on XF 498 CNS was more than 100 µM throughout. For the same compound, the TGI in the experiment with HOP-18 NSCLC and with ACHN renal was more than 100 µM each time.

For `COc1cc2nc(N3CCC[C@@H](NC4=CC(=O)c5ccccc5C4=O)C3)nc(N)c2cc1OC`, the figures for the GI50 in the experiment on PC-3 prostate, in the experiment with MDA-MB-231 breast and in the experiment with CAKI-1 renal were 1.91 µM, 1.69 µM and 2.02 µM, respectively. Moreover, the TGI with PC-3 prostate came to 4.16 µM; in the experiment on MDA-MB-231 breast, 3.26 µM; in the experiment on CAKI-1 renal, 4.12 µM.
